{"source": "patent US6620792B1", "about": "“Pharmaceutical compositions containing monosialoganglioside GM1 or derivative thereof suitable for the treatment of parkinson's disease” (Fidia S.p.A., priority 1992, dated 2003)", "key": {"[1]": {"test_system": "cerebellar granule cells", "experiment": "TOPA neurotoxicity in cerebellar granule cell cultures, MTT assay", "format": "cell-based", "details": "for Neuronal survival (%): control cultures = 100%", "method": "Granular cell cultures were obtained from 8-day rat cerebella and cultured (3×10^6 cells) on plates coated with poly-L-lysine substrate according to Skaper et al. (Skaper S. D. et al.: “Culture and use of primary and clonal neural cells”, Methods in Neurosciences, Ed. by P. M. Conn, Vol. 2, pp. 17-33, Academic Press, Orlando, 1990).\nTwenty-four hours later, cytosine arabinoside (10 μM) was added to inhibit non-neuronal proliferation. Cerebellar granule cells were used 10-12 days later without changing the medium.\nCells were incubated with TOPA either for 40 minutes (100 μM acute exposure) or for 24 h (10 μM prolonged exposure).\nTreatment with GM1, AGF2, AGF4 (100 μM) and LIGA 20 (1-30 μm) was carried out as follows:\n(§1) 2-hour pretreatment before acute incubation with TOPA;\n(§2) cotreatment only with LIGA 20 before acute incubation with TOPA;\n(§3) pretreatment with/without cotreatment before (100 μM for 2 h) and/or during (100 μM for 24 h) prolonged incubation with TOPA. TOPA cytotoxicity was determined by evaluating cellular survival, and more precisely:\nMTT colorimetric assay of cerebellar neurons, as described by Mosmann (Mosmann T.: “Rapid colorimetric assay for cellular growth and survival: application to proliferation and cytotoxicity assays”, J. Immunol. Meth., 65, 55-63, 1983).\n(§4) Cytotoxicity is expressed as per cent cellular survival.\nThe results of the two tests (in triplicate) were analysed statistically according to Duncan's test. A brief description of same is reported below:\nIn FIG. 3 the dose-dependent protective effect of LIGA20 against TOPA-induced death of cultured cerebellar granule cells is represented. Cells were exposed concurrently to 100 μM TOPA and 1-30 μM LIGA20 or 200 μM GM1 in Locke's solution for 45 minutes (24° C.), washed and returned to their original medium. Survival was assessed 24 h later by the MTT method. Means±S.E.M. (n=9, 3 experiments). TOPA ( ), LIGA 20 ( ), GM1 ( ).\nIn vitro granule cells at the 11th day were incubated as indicated above. In the 40-minute exposure to TOPA, GM1 (100 μM) was used in 2-h pretreatment only. In the […] exposure to TOPA, GM1 (100 μM) was used either in 2-h pretreatment only or in 2-h pretreatment and in cotreatment with TOPA. The values are expressed with reference to the corresponding control cultures (=100%) and are an average (±S.D.) of two determinations, each being carried out in triplicate."}, "[2]": {"test_system": "mesencephalic dopaminergic neurons", "experiment": "TOPA neurotoxicity in mesencephalic dopaminergic neuron cultures, TH immunofluorescence", "format": "cell-based, rat", "method": "Mesencephalic neuron cultures were prepared according to Dal Toso et al. (Dal Toso et al.: “Development and survival of neurons in dissociated fetal mesencephalic serum-free cell cultures: I. Effects of cell density and of an adult mammalian striatal-derived neuronotrophic factor (SDNF)”, J. Neurosci., 8 (3) 733-745, 1988) from the mesencephalic tegmentum of 14.5-15 days' rat embryos.\nNeurons (0.75×10^6) were plated on a poly-L-ornithine substrate in 12-well (25 mm dia. each) clusters.\nCultures were used between the fourth and the sixth day without changing the medium. […]\nas §1, §2, §3\nTH immunofluorescence (specific for tyrosine hydroxylase) in mesencephalic dopaminergic neurons, as described by Berger et al. (Berger B. et al.: “Long-term development of mesencephalic dopaminergic neurons of mouse embryos in dissociated primary cultures: morphological and histochemical characteristics”, Neurosci., 7, 193-205, 1982);\nas §4\nThe results of the two tests (in triplicate) were analysed statistically according to Duncan's test."}}, "data": [{"molecule": "NC(Cc1cc(O)c(O)cc1O)C(=O)O", "note": "(stereo not drawn) [TOPA, 6-hydroxy-dopa, reference compound]", "values": [{"measurement": "Neuronal survival (%)", "setting": "[1]; TOPA 10 μM alone, 24-h exposure", "result": "17.1 ± 1.4", "unit": "%"}, {"measurement": "Neuronal survival (%)", "setting": "[1]; TOPA 100 μM alone, 40-minute exposure", "result": "22 ± 2.0", "unit": "%"}, {"measurement": "No. of TH+ cells", "setting": "[2]; TOPA 10 μM alone for 24 h, average ± S.D., control 244 ± 20", "result": "62 ± 8 (a)"}]}, {"molecule": "N-dichloroacetyl lyso GM1 [LIGA20]", "values": [{"measurement": "EC50", "setting": "[1]; cotreatment with 100 μM TOPA for 45 minutes, 1-30 μM LIGA20, MTT 24 h later (FIG. 3), read-out: ED50 of protection against the acute toxicity of TOPA", "result": "~9", "unit": "µM"}, {"measurement": "TH+ cells (% control)", "setting": "[2]; 30 μM LIGA20 cotreatment with 100 μM TOPA for 45 minutes, counted 24 h later, mean ± S.E.M., no drug 5.2 ± 1.1", "result": "83.9 ± 4.2", "unit": "% control"}]}, {"molecule": "BDNF: brain-derived neurotrophic factor (protein, UniProt P23560 19-247, looked up) Neurotrophic factor BDNF …: APMKEANIRGQGGLAYPGVRTHGTLESVNGPKAGSRGLTSLADTFEHVIEELLDEDQKVRPNEENNKDADLYTSRVMLSSQVPLEPPLLFLLEEYKNYLDAANMSMRVRRHSDPARRGELSVCDSISEWVTAADKKTAVDMSGGTVTVLEKVPVSKGQLKQYFYETKCNPMGYTKEGCRGIDKRHWNSQCRTTQSYVRALTMDSKKRIGWRFIRIDTSCVCTLTIKRGR", "values": [{"measurement": "neuroprotective activity alone against TOPA-induced neurotoxicity", "setting": "[2]; BDNF alone at 1 ng/ml", "result": "no neuroprotective activity of their own"}]}]}
